Reference: patent US20030138394A1, “Cosmetic and/or pharmaceutical preparations that contain an extract of the plant argania spinosa” (priority 2000, published 2003)

Tested on: human adipocytes
Experiment: Lipolysis activity on human adipocytes (released glycerol)
Type: cell-based
Settings: 30 mM; 90 minutes at 37° C.; reference medium = 0
Procedure: Method: The adipocytes were isolated from human subcutaneous tissue, as corresponds to the general technique in accordance with Rodbell. The extract as in
Example 1 or the comparison substances are dissolved in the reference medium and then brought into contact with the isolated adipocytes for 90 minutes at 37° C. In each case one adipocyte preparations [sic] was analyzed. The percentage increase in released glycerol in the supernatant of the medium was determined by means of spectrophotometry in accordance with the method by Carpéné et al. The reference administered was the medium without substance to be analyzed and was set equal to 0.

Cn1c(=O)c2c(ncn2C)n(C)c1=O [Caffeine]
% increase in released glycerol: 181%
